According to US20260000079A1, “COMPOSITIONS AND METHODS FOR MODULATING IMMUNITY IN PLANTS” (BOYCE THOMPSON INSTITUTE FOR PLANT RESEARCH, INC., priority 2019, published 2026):

Key:
[1] = tested on: Arabidopsis, tomato, and wheat roots; assay: LC-MS comparative metabolomics of ascr #18-treated plant roots; assay type: in vivo
Protocol: Plant tissues were immediately frozen in liquid nitrogen and ground to a fine powder and extracted with 350 μL mixture of water/methanol/chloroform (1:2:1) for 12 hours at 4° C., with shaking at 220 rpm. The extracts were dried in vacuo, resuspended in 100-200 μL of 80% methanol and analyzed by LC/MS. For root tissues, seedlings were extensively washed three times with the excess amount of distilled water and dried on filter paper. The root tissues from 40 seedlings were pooled in one tube and then similarly extracted. Mixed stage C. elegans culture extract was prepared as described (Panda, et al. (2017) Angew Chem. Int. Ed. Engl. 56(17): 4729-4733).
High resolution LC-MS analysis was performed on a Dionex™ 3000 UPLC system coupled with a Thermo Q Exactive™ high-resolution mass spectrometer as described (Artyukhin, et al. (2018) J. Am. Chem. Soc. 140 (8): 2841-2852; Panda, et al. (2017) Angew Chem. Int. Ed. Engl. 56 (17): 4729-4733). Metabolite extracts were separated using water-acetonitrile gradient using Agilent ZORBOX Eclispse XDB-C18 rapid resolution column (2.1 mm×150 mm, particle size 1.8-micron) maintained at 40° C. Solvent A: 0.1% formic acid in water; Solvent B: 0.1% formic acid in acetonitrile. […] Ascarosides were detected in negative ionization mode as [M-H]— and MS/MS spectra and retention times confirmed by comparison with known standards. […]

[2] = tested on: Arabidopsis wildtype and ibr10, ech2, ech2ibr10, or acx1acx5 mutants; assay type: in vivo, Arabidopsis thaliana; conditions: for ascaroside levels in ascr #18-treated acx1acx5 mutant compared with wildtype: roots treated with 1 μM ascr #18
Protocol: FIG. 3A provides a comparison of peroxisomal β-oxidation (pβo) pathways and associated enzymes involved in the conversion of indole-3-butyric acid (IBA)-to-indole acetic acid (IAA) in Arabidopsis and ascaroside biosynthesis in C. elegans. FIG. 3B provides LC-MS analysis of Arabidopsis seedlings treated with 1 μM ascr #18 for 24 hours before sample extraction, comparing ascr #9 production in wildtype and ibr10, ech2, ech2ibr10, or acx1acx5 mutants. FIG. 3C provides a comparison of ascaroside abundances in Arabidopsis wildtype and acx1acx5 roots treated with 1 μM ascr #18. Data are averages±SEM (n=5); n.d.=not detected. FIG. 3D provides RNAseq analysis of ten day-old Arabidopsis wildtype and acx1acx5 mutant roots, plotted as transcript abundance. Data are averages±s.d (n=6).
Arabidopsis thaliana mutant genotypes in the Col-0 background, ibr10-1, ech2-1, ibr10-1ech2-1, and acx1-2acx5-1, were obtained from Rice University (Houston, TX) (Strader, et al. (2011) Plant Cell 23:984-999; Adham, et al. (2005) Plant J. 41:859-874).
To test whether ascr #18 is metabolized via pβo in plants, Arabidopsis mutants impaired in key enzymes of this pathway were analyzed (FIG. 3B). […] In contrast, two other putative po genes, ibr10 and ech2, a putative enoyl-CoA hydratases (Strader, et al. (2011) Plant Cell 23:984-999; Adham, et al. (2005) Plant J. 41:859-874; Zolman, et al. (2008) Genetics 180(1): 237-51), are not required for ascr #18 metabolism in Arabidopsis. ACXs participate in the […] step of pβo by introducing α,β-unsaturation in the side-chain (Von Reuss, et al. (2012) J. Am. Chem. Soc. 134:1817-1824; Strader, et al. (2011) Plant Cell 23:984-999). […] These observations indicate that ascr #18 metabolism in plants into shorter-chained ascarosides proceeds via pβo, and that ACX1 and/or ACX5 are strictly required for chain shortening of ascr #10, whereas the first chain-shortening step from ascr #18 to ascr #10 may involve additional acyl-CoA oxidases.

Row | SMILES | uptake and metabolism of ascr #18 in roots ([1]; roots soaked 24 hours in ascr #18 solution, monocots and dicots) | metabolism of ascr #18 into shorter-chained ascarosides ([2]; acx1acx5 mutant, 1 μM ascr #18, 24 hours) | requirement of ibr10 and ech2 for ascr #18 metabolism ([2]; ibr10, ech2 mutants, 1 μM ascr #18, 24 hours) | ascaroside levels in ascr #18-treated acx1acx5 mutant compared with wildtype [2] | abundance among ascr #18-derived metabolites in roots (LC-MS peak area) ([1]; all three plant species, ascr #18 root treatment 24 hours)
1 | CC1O[C@@H](O[C@@H](C)CCCCCCCCC(=O)O)C(O)C[C@H]1O (stereo in doubt) [ascr #18, (10R)-(3′R,5′R-dihydroxy-6′S-methyl-(2H)-tetrahydropyran-2-yloxy)-undecanoic acid] | taken up and subsequently metabolized into ascarosides with shorter fatty-acid side chains | dramatically reduced | not required | elevated levels | 
2 | C[C@H](CCC(=O)O)O[C@@H]1O[C@@H](C)[C@H](O)C[C@H]1O [ascr #9] |  |  |  | not detected | most abundant differential metabolite
